In patent publication US20250051344A1, “BIFUNCTIONAL SELECTIVE DEGRADERS OF SMARCA2 AND THERAPEUTIC USES THEREOF” (Nurix Therapeutics, Inc., priority 2023, published 2025):

Tests used:
[1] = target: T1, SMARCA4 (Homo sapiens, UniProt P51532); assay: Cellular degradation assay, SMARCA4 (Table 1); format: cell-based
T1 construct: endogenous in cells

[2] = target: T2, SMARCA2 (Homo sapiens, UniProt P51531); assay: SMARCA2 Cellular Degradation Assay (Western blot analysis on Jess platform); format: cell-based; conditions: for DC50 / Dmax: cellular degradation; for Fold Selectivity SMARCA4/2: ratio DC50 SMARCA4 / DC50 SMARCA2
T2 construct: endogenous in cells
T2 sequence (P51531 whole entry, species assumed): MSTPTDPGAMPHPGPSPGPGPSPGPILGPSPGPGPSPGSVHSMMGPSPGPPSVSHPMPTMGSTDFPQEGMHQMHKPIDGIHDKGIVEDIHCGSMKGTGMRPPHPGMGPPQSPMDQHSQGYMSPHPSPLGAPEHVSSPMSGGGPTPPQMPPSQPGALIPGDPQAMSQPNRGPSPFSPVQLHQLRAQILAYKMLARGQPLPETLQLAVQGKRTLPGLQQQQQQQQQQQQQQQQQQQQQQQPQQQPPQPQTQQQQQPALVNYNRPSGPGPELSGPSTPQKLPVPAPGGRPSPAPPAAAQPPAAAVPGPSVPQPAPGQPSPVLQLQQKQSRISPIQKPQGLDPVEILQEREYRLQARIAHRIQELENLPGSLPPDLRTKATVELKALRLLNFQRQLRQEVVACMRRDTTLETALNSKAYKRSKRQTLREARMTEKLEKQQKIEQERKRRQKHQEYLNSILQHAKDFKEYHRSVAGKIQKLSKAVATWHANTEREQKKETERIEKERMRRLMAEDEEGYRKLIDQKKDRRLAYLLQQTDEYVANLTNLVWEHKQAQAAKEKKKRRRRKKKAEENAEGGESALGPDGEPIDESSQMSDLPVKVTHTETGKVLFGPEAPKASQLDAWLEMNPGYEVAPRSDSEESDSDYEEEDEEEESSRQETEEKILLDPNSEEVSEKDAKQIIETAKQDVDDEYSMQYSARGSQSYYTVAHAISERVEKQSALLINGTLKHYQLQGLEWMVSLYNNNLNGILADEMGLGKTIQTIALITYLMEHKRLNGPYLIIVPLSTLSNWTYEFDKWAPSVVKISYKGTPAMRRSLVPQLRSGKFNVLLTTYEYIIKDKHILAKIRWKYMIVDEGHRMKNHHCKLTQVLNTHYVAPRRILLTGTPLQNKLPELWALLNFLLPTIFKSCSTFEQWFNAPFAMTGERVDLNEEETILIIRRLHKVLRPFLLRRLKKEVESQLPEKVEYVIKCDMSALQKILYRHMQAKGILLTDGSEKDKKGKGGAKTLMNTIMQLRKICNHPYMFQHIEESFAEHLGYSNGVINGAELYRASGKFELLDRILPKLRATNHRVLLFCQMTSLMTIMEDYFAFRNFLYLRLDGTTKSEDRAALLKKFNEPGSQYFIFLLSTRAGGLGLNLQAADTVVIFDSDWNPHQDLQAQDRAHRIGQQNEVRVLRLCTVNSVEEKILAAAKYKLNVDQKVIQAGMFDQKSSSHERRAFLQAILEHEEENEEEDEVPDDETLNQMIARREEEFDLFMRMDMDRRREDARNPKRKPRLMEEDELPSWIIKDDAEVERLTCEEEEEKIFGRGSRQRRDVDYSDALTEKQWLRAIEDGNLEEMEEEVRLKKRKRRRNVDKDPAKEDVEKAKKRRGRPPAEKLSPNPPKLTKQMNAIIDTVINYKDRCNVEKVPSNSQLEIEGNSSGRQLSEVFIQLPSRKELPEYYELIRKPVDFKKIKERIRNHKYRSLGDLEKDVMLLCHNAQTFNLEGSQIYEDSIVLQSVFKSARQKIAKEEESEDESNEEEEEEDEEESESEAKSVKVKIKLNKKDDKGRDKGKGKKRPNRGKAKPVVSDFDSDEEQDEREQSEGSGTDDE
Outline: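 Percent SMARCA2 remaining relative to vehicle was derived from capillary Western peak areas, each normalized to β-actin after capillary background subtraction. Samples were tumor-derived cell lysates, 5 μg total protein loaded, heated at 95° C. for 5 minutes before the Jess run.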

T1 sequence (P51532 whole entry, species assumed): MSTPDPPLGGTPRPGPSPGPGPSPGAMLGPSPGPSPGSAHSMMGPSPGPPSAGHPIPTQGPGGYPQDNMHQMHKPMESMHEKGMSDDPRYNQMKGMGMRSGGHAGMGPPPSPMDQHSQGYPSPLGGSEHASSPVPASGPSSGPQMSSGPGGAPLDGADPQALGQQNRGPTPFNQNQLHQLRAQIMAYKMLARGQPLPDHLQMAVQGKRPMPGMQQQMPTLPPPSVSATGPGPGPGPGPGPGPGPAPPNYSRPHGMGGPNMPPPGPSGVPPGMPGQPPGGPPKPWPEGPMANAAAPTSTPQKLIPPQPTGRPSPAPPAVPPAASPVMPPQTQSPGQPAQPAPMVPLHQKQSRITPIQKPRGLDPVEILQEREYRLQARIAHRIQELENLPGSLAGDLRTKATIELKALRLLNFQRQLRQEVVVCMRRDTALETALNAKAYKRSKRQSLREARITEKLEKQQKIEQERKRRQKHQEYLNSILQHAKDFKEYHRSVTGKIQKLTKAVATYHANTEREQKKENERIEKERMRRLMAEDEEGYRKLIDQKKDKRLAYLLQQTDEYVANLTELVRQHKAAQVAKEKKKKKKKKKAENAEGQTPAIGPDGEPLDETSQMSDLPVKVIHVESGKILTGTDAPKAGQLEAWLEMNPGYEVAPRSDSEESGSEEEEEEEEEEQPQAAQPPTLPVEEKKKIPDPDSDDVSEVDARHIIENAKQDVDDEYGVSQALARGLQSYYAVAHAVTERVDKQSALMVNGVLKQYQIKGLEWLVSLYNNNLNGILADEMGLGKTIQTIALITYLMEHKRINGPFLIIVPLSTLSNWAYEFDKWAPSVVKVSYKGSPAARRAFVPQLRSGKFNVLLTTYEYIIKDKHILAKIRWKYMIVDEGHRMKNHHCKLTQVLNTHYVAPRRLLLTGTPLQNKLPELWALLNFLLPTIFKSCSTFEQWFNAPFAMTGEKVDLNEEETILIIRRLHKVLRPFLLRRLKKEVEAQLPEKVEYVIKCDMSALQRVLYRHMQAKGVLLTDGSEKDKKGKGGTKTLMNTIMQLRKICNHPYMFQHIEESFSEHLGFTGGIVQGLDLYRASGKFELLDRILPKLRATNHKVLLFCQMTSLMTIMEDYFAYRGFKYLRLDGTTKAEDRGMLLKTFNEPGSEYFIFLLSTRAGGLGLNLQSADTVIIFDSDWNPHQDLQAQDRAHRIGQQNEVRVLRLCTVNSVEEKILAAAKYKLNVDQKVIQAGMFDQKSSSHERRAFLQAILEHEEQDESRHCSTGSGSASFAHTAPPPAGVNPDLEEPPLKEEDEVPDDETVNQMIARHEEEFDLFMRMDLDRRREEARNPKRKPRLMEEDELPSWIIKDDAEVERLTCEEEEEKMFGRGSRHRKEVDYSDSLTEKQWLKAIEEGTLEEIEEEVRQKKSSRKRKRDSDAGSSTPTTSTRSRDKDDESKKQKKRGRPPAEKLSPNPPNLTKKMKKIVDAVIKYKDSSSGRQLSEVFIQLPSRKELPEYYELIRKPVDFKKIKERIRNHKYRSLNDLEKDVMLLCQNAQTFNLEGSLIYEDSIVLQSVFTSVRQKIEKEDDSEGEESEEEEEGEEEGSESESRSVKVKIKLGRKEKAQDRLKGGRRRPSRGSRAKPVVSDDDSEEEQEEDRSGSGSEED

Row | SMILES | Dmax [1] [%] | DC50 [2] [nM] | Dmax [2] [%] | Fold Selectivity SMARCA4/2 [2] | DC50 [1] [nM]
1 | O=C1CCC(c2ccc(N3CCC(CCN4CC5(C4)CN(C(=O)C4(OC6CCCCC6)CCN(c6cnnc(-c7ccccc7O)c6)CC4)C5)CC3)cc2)C(=O)N1 (racemic) [Example 121, rac-3-(4-(4-(2-(6-(4-(cyclohexyloxy)-1-(6-(2-hydroxyphenyl)pyridazin-4-yl)piperidine-4-carbonyl)-2,6-diazaspiro[3.3]heptan-2-yl)ethyl)piperidin-1-yl)phenyl)piperidine-2,6-dione] | 29.3 | 14.9 | 74.3 | 671 | 
2 | O=C1CCC(c2ccc(N3CCC(F)(CCN4CC5(C4)CN(C(=O)C4(c6ccccc6)CCN(c6cnnc(-c7ccccc7O)c6)CC4)C5)CC3)cc2)C(=O)N1 (racemic) [Example 122, rac-(3R)-3-(4-{4-fluoro-4-[2-(6-{1-[6-(2-hydroxyphenyl)pyridazin-4-yl]-4-phenylpiperidine-4-carbonyl}-2,6-diazaspiro[3.3]heptan-2-yl)ethyl]piperidin-1-yl}phenyl)piperidine-2,6-dione] | 34.8 | 9.13 | 73.6 | 1095 | 
3 | CN(C(=O)C1(OC2CC2)CCN(c2cnnc(-c3ccccc3O)c2)CC1)C1CCN(CCC2CCN(c3ccc(C4CCC(=O)NC4=O)cc3)CC2)CC1 (racemic) [Example 124, rac-4-cyclopropoxy-N-{1-[2-(1-{4-[(3r)-2,6-dioxopiperidin-3-yl]phenyl}piperidin-4-yl)ethyl]piperidin-4-yl}-1-[6-(2-hydroxyphenyl)pyridazin-4-yl]-N-methylpiperidine-4-carboxamide] | 25.1 | 11.3 | 75.9 | 882 | 
4 | Cn1c(=O)n(C2CCC(=O)NC2=O)c2cccc(N3CCN(CC(=O)N4CC5(C4)CN(C(=O)C4(c6ccccc6)CCN(c6cnnc(-c7ccccc7O)c6)CC4)C5)CC3)c21 (racemic) [Example 126, rac-(3R)-3-(4-{4-[2-(6-{1-[6-(2-hydroxyphenyl)pyridazin-4-yl]-4-phenylpiperidine-4-carbonyl}-2,6-diazaspiro[3.3]heptan-2-yl)-2-oxoethyl]piperazin-1-yl}-3-methyl-2-oxo-2,3-dihydro-1H-1,3-benzodiazol-1-yl)piperidine-2,6-dione] | 32.2 | 32.8 | 80.9 | 304 | 
5 | O=C1CCC(c2ccc(N3CCC4(CC3)COC(CN3CC5(CCN(C(=O)C6(c7ccccc7)CCN(c7cnnc(-c8ccccc8O)c7)CC6)CC5)C3)C4)cc2)C(=O)N1 (racemic) [Example 127, rac-(3R)-3-(4-{3-[(7-{1-[6-(2-hydroxyphenyl)pyridazin-4-yl]-4-phenylpiperidine-4-carbonyl}-2,7-diazaspiro[3.5]nonan-2-yl)methyl]-2-oxa-8-azaspiro[4.5]decan-8-yl}phenyl)piperidine-2,6-dione] | 56.1 | 32 | 64.2 | 312 | 
6 | Cn1ccc(OC2(C(=O)N3CCC4(CC3)CN(CCC3CCN(c5ccc(C6CCC(=O)NC6=O)cc5)CC3)C4)CCN(c3cnnc(-c4ccccc4O)c3)CC2)n1 (racemic) [Example 128, rac-3-(4-(4-(2-(7-(1-(6-(2-hydroxyphenyl)pyridazin-4-yl)-4-((1-methyl-1h-pyrazol-3-yl)oxy)piperidine-4-carbonyl)-2,7-diazaspiro[3.5]nonan-2-yl)ethyl)piperidin-1-yl)phenyl)piperidine-2,6-dione] | 39.1 | 11.1 | 71.6 | 899 | 
7 | O=C1CC[C@H](c2ccc(N3CC[C@]4(C3)C[C@@H](N3CC5(CCN(C(=O)C6(c7ccccc7)CCN(c7cnnc(-c8ccccc8O)c7)CC6)CC5)C3)C4)cc2)C(=O)N1 (racemic) [Example 129, (3RS&)-3-{4-[(2rs,4sr)-2-(7-{1-[6-(2-hydroxyphenyl)pyridazin-4-yl]-4-phenylpiperidine-4-carbonyl}-2,7-diazaspiro[3.5]nonan-2-yl)-6-azaspiro[3.4]octan-6-yl]phenyl}piperidine-2,6-dione] | 61 | 20.3 | 78.2 | 6 | 125
8 | CN(C(=O)C1(c2ccccc2)CCN(c2cnnc(-c3ccccc3O)c2)CC1)C1CCN(CCC2CCN(c3cccc4c3n(C)c(=O)n4C3CCC(=O)NC3=O)CC2)CC1 (racemic) [Example 130, rac-N-{1-[2-(1-{1-[(3r)-2,6-dioxopiperidin-3-yl]-3-methyl-2-oxo-2,3-dihydro-1H-1,3-benzodiazol-4-yl}piperidin-4-yl)ethyl]piperidin-4-yl}-1-[6-(2-hydroxyphenyl)pyridazin-4-yl]-N-methyl-4-phenylpiperidine-4-carboxamide] | 84.4 | 0.31 | 96.4 | 28 | 8.72
9 | CC1(CCN2CC3(C2)CN(C(=O)C2(c4ccccc4)CCN(c4cnnc(-c5ccccc5O)c4)CC2)C3)CCN(c2ccc(C3CCC(=O)NC3=O)cc2)CC1 (racemic) [Example 131, rac-(3R)-3-(4-{4-[2-(6-{1-[6-(2-hydroxyphenyl)pyridazin-4-yl]-4-phenylpiperidine-4-carbonyl}-2,6-diazaspiro[3.3]heptan-2-yl)ethyl]-4-methylpiperidin-1-yl}phenyl)piperidine-2,6-dione] | 38.9 | 29.4 | 71.3 | 340 | 
10 | O=C1CCC(c2ccc(N3CCC(CCN4CC5(C4)CN(C(=O)C4(c6ccccc6F)CCN(c6cnnc(-c7ccccc7O)c6)CC4)C5)CC3)cc2)C(=O)N1 (racemic) [Example 132, rac-(3R)-3-{4-[4-(2-{6-[4-(2-fluorophenyl)-1-[6-(2-hydroxyphenyl)pyridazin-4-yl]piperidine-4-carbonyl]-2,6-diazaspiro[3.3]heptan-2-yl}ethyl)piperidin-1-yl]phenyl}piperidine-2,6-dione] | 15 | 10.2 | 71.6 | 984 | 
11 | CN(C(=O)C1(c2ccc(F)cc2)CCN(c2cnnc(-c3ccccc3O)c2)CC1)C1CCN(CCC2CCN(c3ccc(C4CCC(=O)NC4=O)cc3)CC2)CC1 (racemic) [Example 134, rac-N-{1-[2-(1-{4-[(3R)-2,6-dioxopiperidin-3-yl]phenyl}piperidin-4-yl)ethyl]piperidin-4-yl}-4-(4-fluorophenyl)-1-[6-(2-hydroxyphenyl)pyridazin-4-yl]-n-methylpiperidine-4-carboxamide] | 31.1 | 8.79 | 87.1 | 1138 | 
12 | O=C1CCC(c2c(F)cc(N3CCC(CN4CCC5(CC4)CN(C(=O)C4(Oc6ccccc6)CCN(c6cnnc(-c7ccccc7O)c6)CC4)C5)CC3)cc2F)C(=O)N1 (racemic) [Example 136, rac-(3R)-3-(2,6-difluoro-4-{4-[(2-{1-[6-(2-hydroxyphenyl)pyridazin-4-yl]-4-phenoxypiperidine-4-carbonyl}-2,7-diazaspiro[3.5]nonan-7-yl)methyl]piperidin-1-yl}phenyl)piperidine-2,6-dione] | 84.2 | 2.1 | 94 | 8 | 17.8
13 | O=C1CCC(c2ccc(N3CCC4(CC3)CC(CN3CC5(CCN(C(=O)C6(c7ccccc7)CCN(c7cnnc(-c8ccccc8O)c7)CC6)CC5)C3)C4)cc2)C(=O)N1 (racemic) [Example 137, rac-(3R)-3-(4-{2-[(7-{1-[6-(2-hydroxyphenyl)pyridazin-4-yl]-4-phenylpiperidine-4-carbonyl}-2,7-diazaspiro[3.5]nonan-2-yl)methyl]-7-azaspiro[3.5]nonan-7-yl}phenyl)piperidine-2,6-dione] | 44.9 | 44.4 | 66.3 | 225 | 
14 | O=C1CCC(c2ccc(N3CCC(CN4CC5(C4)CN(C(=O)C4(c6ccccc6)CCN(c6cnnc(-c7ccccc7O)c6)CC4)C5)CC3)c(F)c2F)C(=O)N1 (racemic) [Example 138, rac-(3R)-3-(2,3-difluoro-4-{4-[(6-{1-[6-(2-hydroxyphenyl)pyridazin-4-yl]-4-phenylpiperidine-4-carbonyl}-2,6-diazaspiro[3.3]heptan-2-yl)methyl]piperidin-1-yl}phenyl)piperidine-2,6-dione] | 67.1 | 4.09 | 89 | 9 | 38.3
15 | C[C@@H](C1CCN(c2ccc([C@H]3CCC(=O)NC3=O)cn2)CC1)N1CC2(CN(C(=O)C3(c4ccccc4)CCN(c4cnnc(-c5ccccc5O)c4)CC3)C2)C1 (racemic) [Example 141, (3RS&)-3-(6-{4-[(1RS)-1-(6-{1-[6-(2-hydroxyphenyl)pyridazin-4-yl]-4-phenylpiperidine-4-carbonyl}-2,6-diazaspiro[3.3]heptan-2-yl)ethyl]piperidin-1-yl}pyridin-3-yl)piperidine-2,6-dione] | 71.5 | 6.59 | 87 | 5 | 34.9
16 | CN(CC1(c2ccccc2)CCN(c2cnnc(-c3ccccc3O)c2)CC1)C1CCN(C(=O)C2CCN(c3ccc(C4CCC(=O)NC4=O)cc3)CC2)CC1 (racemic) [Example 142, rac-(r)-3-(4-(4-(4-(((1-(6-(2-hydroxyphenyl)pyridazin-4-yl)-4-phenylpiperidin-4-yl)methyl)(methyl)amino)piperidine-1-carbonyl)piperidin-1-yl)phenyl)piperidine-2,6-dione] | 60 | 24.5 | 69.9 | 3 | 84.8
